Values of other authors in patent US20070191305A1, “Chromone complexes” (priority 2004, published 2007).

Legend:
[1] = over the entire pH range

Row | Compound | cell differentiation (keratinocyte cultures) | lipid production (keratinocyte cultures) | antioxidant activity amongst the hydroxyflavones investigated [1]
1 | O=C1CCOc2ccccc21 [Example 4-chromanone, 4-chromanone] | promotes cell differentiation | stimulates lipid production | –
2 | O=c1c(O)c(-c2ccc(O)c(O)c2)oc2cc(O)cc(O)c12 [Quercetin, 3,3′,4′,5,7-pentahydroxyflavone] | – | – | greatest activity
